Assay results: patent publication US20220372040A1, “METTL3 MODULATORS” (Accent Therapeutics, Inc., priority 2020, published 2022)

How the values were obtained:
Type in all cases: biochemical
[1] = molecular target: METTL3/METTL14 (Homo sapiens, UniProt Q86U44); assay: METTL3-14 standard enzyme assay (3H-SAM flashplate scintillation); conditions: METTL3/METTL14 2.5 nM, RNA 100 nM, 3H-SAM 100 nM, 30 min
In short: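 METTL3/METTL14 (2.5 nM final) preincubated 5 min with compound in 20 mM HEPES pH 7.5, 50 mM KCl, 250 μM MgCl2, 1 mM DTT, ambient temperature; started with 100 nM 3′-biotinylated RNA (UCUGGACUAAA) and 100 nM 3H-SAM. After 30 min, quenched with 15 μM cold SAM; methylated RNA captured on streptavidin flashplates and counted by scintillation.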

[2] = molecular target: PRMT5-MEP50 (Homo sapiens, UniProt O14744); assay: PRMT5 assay (3H-SAM flashplate scintillation); conditions: PRMT5-MEP50 2.5 nM, histone H4 peptide 100 nM, 3H-SAM 250 nM, 60 min
In short: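 PRMT5-MEP50 (2.5 nM final) preincubated 5 min with compound, then reacted 60 min at ambient temperature with 100 nM biotinylated N-acetyl histone H4 peptide and 250 nM 3H-SAM in 20 mM Tris-HCl pH 8.0, 1 mM DTT, 0.01% Tween. Quenched with 15 μM cold SAM; methylated peptide captured on streptavidin flashplates, scintillation counted.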

[3] = molecular target: METTL1/WDR4 (Homo sapiens, UniProt Q9UBP6); assay: METTL1 assay (3H-SAM flashplate scintillation); conditions: METTL1/WDR4 6.25 nM, RNA 25 nM, 3H-SAM 60 nM, 20 min; read-out: METTL1 IC50
Description: (§1) Assays were performed in a 25 μl-volume in 384-well V-bottom polypropylene microplates (Greiner Bio-One, cat. No. 781280) at ambient temperature. Optimized 1× assay buffer was 20 mM HEPES pH 7.5, 50 mM KCl, 250 μM MgCl2, 1 mM DTT, 0.01% Tween, 0.01% BSG, 0.004 U/μl RNAseOUT (cat. No. 10777019, ThermoFisher Scientific, Waltham, Mass.). For compound screening METTL1/WDR4 (final concentration, f.c.=6.25 nM) was added using a Multidrop Combi (ThermoFisher Scientific, Waltham, Mass.) and preincubated for 5 min. Reactions were started by adding 3′ biotinylated RNA ([…]-biotin) (f.c.=25 nM) and 3H-SAM (f.c.=60 nM) substrates. Reactions proceeded for 20 minutes and were quenched with excess non-radioactive SAM (f.c.=15 μM). The reactions were then transferred to streptavidin-coated flashplates and incubated for 2 hours at 25° C. Following two washing cycles with 0.1% Tween-20, the plates were sealed and read on a TopCount (PerkinElmer, Waltham, Mass.) plate-based scintillation counter. For determination of kinetic parameters, reaction times were optimized so that measurements were taken during the initial velocity phase of the reaction.

[4] = molecular target: T1, METTL16 (Homo sapiens, UniProt Q86W50); assay: METTL16 assay (3H-SAM flashplate scintillation); conditions: METTL16 100 nM, RNA 50 nM, 3H-SAM 200 nM, SAM 800 nM, 20 min
T1 sequence (Q86W50 1-562): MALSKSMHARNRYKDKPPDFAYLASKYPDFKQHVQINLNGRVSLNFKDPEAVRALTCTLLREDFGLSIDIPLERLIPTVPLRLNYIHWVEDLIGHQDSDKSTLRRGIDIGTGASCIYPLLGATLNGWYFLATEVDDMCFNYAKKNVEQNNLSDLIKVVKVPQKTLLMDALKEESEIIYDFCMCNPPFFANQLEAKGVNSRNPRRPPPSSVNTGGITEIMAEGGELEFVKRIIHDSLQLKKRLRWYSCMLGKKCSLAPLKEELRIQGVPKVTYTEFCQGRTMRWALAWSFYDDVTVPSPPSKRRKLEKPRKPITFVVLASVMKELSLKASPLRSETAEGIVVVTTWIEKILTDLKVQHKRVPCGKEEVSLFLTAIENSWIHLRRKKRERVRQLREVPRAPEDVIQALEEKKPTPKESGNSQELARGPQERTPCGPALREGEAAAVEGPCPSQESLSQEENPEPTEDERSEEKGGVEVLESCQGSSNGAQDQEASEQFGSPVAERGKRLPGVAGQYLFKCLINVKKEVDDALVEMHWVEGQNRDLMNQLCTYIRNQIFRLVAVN
Description: as §1, with “KCl,” for “KCl, 250 μM MgCl2,”, “METTL16” for “METTL1/WDR4”, “f.c.=100” for “f.c.=6.25”, “(f.c.=50 nM), 3H-SAM (f.c.=200” for “(f.c.=25”, “non-radiolabeled SAM (f.c.=800” for “3H-SAM (f.c.=60”, “(f.c.=100” for “(f.c.=15”

Chain of METTL3/METTL14 (Q86U44 whole entry, species assumed): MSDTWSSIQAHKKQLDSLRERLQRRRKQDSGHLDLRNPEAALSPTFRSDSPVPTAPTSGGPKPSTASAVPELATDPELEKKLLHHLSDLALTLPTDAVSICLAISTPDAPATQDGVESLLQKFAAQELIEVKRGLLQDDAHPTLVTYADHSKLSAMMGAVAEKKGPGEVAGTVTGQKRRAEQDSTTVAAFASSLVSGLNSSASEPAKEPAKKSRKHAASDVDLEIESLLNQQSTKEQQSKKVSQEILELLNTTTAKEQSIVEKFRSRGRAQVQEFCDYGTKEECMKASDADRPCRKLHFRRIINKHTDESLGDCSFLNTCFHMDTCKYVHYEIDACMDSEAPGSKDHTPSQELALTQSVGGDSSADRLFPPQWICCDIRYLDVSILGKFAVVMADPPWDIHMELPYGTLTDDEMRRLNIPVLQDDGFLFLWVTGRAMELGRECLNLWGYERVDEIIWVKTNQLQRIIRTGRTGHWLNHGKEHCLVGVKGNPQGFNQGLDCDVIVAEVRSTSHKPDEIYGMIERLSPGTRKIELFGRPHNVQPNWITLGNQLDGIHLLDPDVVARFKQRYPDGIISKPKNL
Chain of METTL3/METTL14 (Q9HCE5 whole entry partner, species assumed): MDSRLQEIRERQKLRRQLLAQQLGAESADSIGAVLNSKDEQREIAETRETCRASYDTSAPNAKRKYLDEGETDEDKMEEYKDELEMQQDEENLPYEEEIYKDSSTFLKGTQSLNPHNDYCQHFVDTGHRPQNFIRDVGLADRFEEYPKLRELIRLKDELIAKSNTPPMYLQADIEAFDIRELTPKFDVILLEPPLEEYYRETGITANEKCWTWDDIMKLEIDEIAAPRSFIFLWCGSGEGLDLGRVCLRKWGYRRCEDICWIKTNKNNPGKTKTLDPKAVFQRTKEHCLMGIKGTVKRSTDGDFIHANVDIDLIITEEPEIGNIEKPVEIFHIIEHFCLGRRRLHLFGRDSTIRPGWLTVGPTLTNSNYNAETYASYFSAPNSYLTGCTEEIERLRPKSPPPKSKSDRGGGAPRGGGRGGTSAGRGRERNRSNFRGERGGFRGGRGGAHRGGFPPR
Chain of PRMT5-MEP50 (O14744 whole entry): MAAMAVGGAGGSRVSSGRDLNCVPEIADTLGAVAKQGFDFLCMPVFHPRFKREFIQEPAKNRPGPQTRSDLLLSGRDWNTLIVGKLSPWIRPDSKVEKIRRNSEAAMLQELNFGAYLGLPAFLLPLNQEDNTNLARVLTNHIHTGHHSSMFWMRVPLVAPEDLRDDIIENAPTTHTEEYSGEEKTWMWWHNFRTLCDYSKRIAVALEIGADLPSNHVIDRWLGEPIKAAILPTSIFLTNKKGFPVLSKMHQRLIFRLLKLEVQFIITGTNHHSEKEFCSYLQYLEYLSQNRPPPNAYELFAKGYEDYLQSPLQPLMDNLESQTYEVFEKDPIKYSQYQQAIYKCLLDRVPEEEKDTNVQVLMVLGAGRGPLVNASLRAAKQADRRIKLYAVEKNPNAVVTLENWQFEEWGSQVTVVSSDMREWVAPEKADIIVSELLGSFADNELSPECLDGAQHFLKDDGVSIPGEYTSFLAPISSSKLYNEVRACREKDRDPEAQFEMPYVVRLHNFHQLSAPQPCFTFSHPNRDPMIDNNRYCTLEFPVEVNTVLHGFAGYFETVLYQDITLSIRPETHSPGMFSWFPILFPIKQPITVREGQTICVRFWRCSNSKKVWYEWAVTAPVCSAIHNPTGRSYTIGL
Chain of PRMT5-MEP50 (Q9BQA1 whole entry partner): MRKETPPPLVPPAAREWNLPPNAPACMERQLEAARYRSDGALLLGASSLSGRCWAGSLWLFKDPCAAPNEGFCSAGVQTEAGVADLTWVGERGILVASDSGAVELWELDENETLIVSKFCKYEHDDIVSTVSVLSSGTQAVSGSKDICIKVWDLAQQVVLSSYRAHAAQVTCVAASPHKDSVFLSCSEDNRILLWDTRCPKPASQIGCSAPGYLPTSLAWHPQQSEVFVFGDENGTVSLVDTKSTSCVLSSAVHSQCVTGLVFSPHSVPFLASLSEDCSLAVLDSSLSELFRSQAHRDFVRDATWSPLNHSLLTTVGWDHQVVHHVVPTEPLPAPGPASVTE
Chain of METTL1/WDR4 (Q9UBP6 whole entry, species assumed): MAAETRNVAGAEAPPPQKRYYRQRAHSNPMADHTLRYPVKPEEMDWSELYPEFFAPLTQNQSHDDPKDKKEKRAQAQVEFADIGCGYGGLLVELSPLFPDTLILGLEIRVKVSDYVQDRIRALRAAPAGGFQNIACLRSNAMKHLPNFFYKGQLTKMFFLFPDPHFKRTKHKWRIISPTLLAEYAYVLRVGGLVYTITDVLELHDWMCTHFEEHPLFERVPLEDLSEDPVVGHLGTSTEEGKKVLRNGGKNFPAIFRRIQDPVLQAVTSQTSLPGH
Chain of METTL1/WDR4 (P57081 whole entry partner, species assumed): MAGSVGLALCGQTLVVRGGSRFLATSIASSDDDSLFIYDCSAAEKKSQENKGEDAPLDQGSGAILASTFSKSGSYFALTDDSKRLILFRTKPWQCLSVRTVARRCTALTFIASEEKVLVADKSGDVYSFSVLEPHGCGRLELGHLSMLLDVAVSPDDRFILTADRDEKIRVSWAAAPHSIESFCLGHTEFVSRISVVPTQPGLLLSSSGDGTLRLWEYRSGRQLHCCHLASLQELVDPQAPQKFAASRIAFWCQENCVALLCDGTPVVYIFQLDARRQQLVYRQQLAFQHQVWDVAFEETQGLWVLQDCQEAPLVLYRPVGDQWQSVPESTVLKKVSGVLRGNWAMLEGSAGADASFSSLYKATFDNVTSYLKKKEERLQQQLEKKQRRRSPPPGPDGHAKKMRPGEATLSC

With `CNc1ccc2ccc(OCc3ccnc(-n4cc(Cl)c5c(N)ncnc54)c3)cc2n1` [Compound I-85] the IC50 [1] was 100 to 1000 nM, the IC50 [2] was > 1000 nM and the IC50 [3] was > 1000 nM. The IC50 [4] was > 1000 nM.
In the case of `CNc1ccc2ccc(OCc3cccc(-n4cc(C5CCCC5)c5c(N)ncnc54)c3)cc2n1` [Compound I-86], the IC50 [1] is reported as 10 to 100 nM, the IC50 [2] is reported as > 1000 nM and the IC50 [3] is reported as > 1000 nM. The IC50 [4] was > 1000 nM.
`CNc1ccc2ccc(OCc3cccc(-n4cc(C5CC5)c5c(N)ncnc54)c3)cc2n1` [Compound I-73] was tested, and the IC50 [1] was 10 to 100 nM, the IC50 [2] was > 1000 nM and the IC50 [3] was > 1000 nM. For the same compound, the IC50 [4] was > 1000 nM.
`CNc1ccc2ccc(OCc3cc(F)cc(-n4cc(Cl)c5c(N)ncnc54)c3)cc2n1` [Compound I-76] was tested, and the IC50 [1] was 10 to 100 nM, the IC50 [2] was > 1000 nM and the IC50 [3] was > 1000 nM. The IC50 [4] was > 1000 nM.
In the case of `CNc1ccc2ccc(OCc3cncc(-n4ccc5c(N)nc(N)nc54)c3)cc2n1` [Compound I-56], the IC50 [1] is reported as 100 to 1000 nM, the IC50 [2] is reported as > 1000 nM and the IC50 [4] is reported as > 1000 nM.
With `CNc1ccc2ccc(CCc3cncc(-n4cc(Cl)c5c(N)ncnc54)c3)cc2n1` [Compound I-51] the IC50 [1] was 10 to 100 nM, the IC50 [2] was > 1000 nM and the IC50 [4] was > 1000 nM.
For `CNc1ccc2ccc(OCc3cncc(-n4cc(C5CCN(C)CC5)c5c(N)ncnc54)c3)cc2n1` [Compound I-33], the IC50 [1] was 100 to 1000 nM, the IC50 [2] was > 1000 nM and the IC50 [3] was > 1000 nM. For the same compound, the IC50 [4] was > 1000 nM.
For `CNc1ccc2ccc(OCc3cncc(-n4ccc5c(N)nc(N(C)C)nc54)c3)cc2n1` [Compound I-49], the IC50 [1] was > 1000 nM, the IC50 [2] was > 1000 nM and the IC50 [4] was > 1000 nM.
`CNc1ccc2ccc(OCc3nnc(-n4cc(Cl)c5c(N)ncnc54)s3)cc2n1` [Compound I-62] was tested, and the IC50 [1] was > 1000 nM, the IC50 [2] was 10 to 100 nM and the IC50 [3] was > 1000 nM. For the same compound, the IC50 [4] was > 1000 nM.
With `CNc1ccc2ccc(OCc3cncc(-n4cc(C5CCCC5)c5cncnc54)c3)cc2n1` [Compound I-57] the IC50 [1] was 100 to 1000 nM, the IC50 [2] was > 1000 nM and the IC50 [4] was > 1000 nM.
With `Cc1cc(N)c2ccc(OCc3cccc(-n4cc(Cl)c5c(N)ncnc54)c3)cc2n1` [Compound I-65] the IC50 [1] was 10 to 100 nM, the IC50 [2] was > 1000 nM and the IC50 [3] was > 1000 nM. For the same compound, the IC50 [4] was > 1000 nM.
With `Nc1ncnc2c1c(Cl)cn2-c1cncc(COc2ccc3ccc(N4CCCC4)nc3c2)c1` [Compound I-40] the IC50 [1] was 10 to 100 nM, the IC50 [2] was > 1000 nM and the IC50 [4] was > 1000 nM.
For `CNc1ccc2ccc(CN(C)c3cccc(-n4cc(Br)c5c(N)ncnc54)c3)cc2n1` [Compound I-69], the IC50 [1] was > 1000 nM, the IC50 [2] was > 1000 nM and the IC50 [3] was > 1000 nM. The IC50 [4] was > 1000 nM.
For `CNc1ccc2ccc(OCc3cccc(-n4cc(CC5CC5)c5c(N)ncnc54)c3)cc2n1` [Compound I-79], the IC50 [1] was 10 to 100 nM, the IC50 [2] was > 1000 nM and the IC50 [3] was > 1000 nM. For the same compound, the IC50 [4] was > 1000 nM.
`Nc1ncnc2c1ccn2-c1cncc(COc2ccc3ccc(N4CCCC4)nc3c2)c1` [Compound I-26] was tested, and the IC50 [1] was 10 to 100 nM, the IC50 [2] was > 1000 nM and the IC50 [4] was > 1000 nM.
For `CNc1ccc2ccc(OCc3cc(O)cc(-n4cc(Cl)c5c(N)ncnc54)c3)cc2n1` [Compound I-81], the IC50 [1] was 10 to 100 nM, the IC50 [2] was > 1000 nM and the IC50 [3] was > 1000 nM. For the same compound, the IC50 [4] was > 1000 nM.
With `CNc1ccc2ccc(OCc3cccc(-n4ccc5c(N)ncnc54)c3F)cc2n1` [Compound I-226] the IC50 [1] was 10 to 100 nM, the IC50 [2] was > 1000 nM and the IC50 [3] was > 1000 nM. The IC50 [4] was > 1000 nM.
`CNc1ccc2ccc(OCc3cccc(-c4c[nH]c5c(N)ncnc45)c3)cc2n1` [Compound I-71] was tested, and the IC50 [1] was 10 to 100 nM, the IC50 [2] was > 1000 nM and the IC50 [3] was > 1000 nM. The IC50 [4] was > 1000 nM.
In the case of `C[C@H]1CCN1c1ccc2ccc(OCc3cncc(-n4cc(C5CCCC5)c5c(N)ncnc54)c3)cc2n1` [Compound I-125], the IC50 [1] is reported as 10 to 100 nM, the IC50 [2] is reported as > 1000 nM and the IC50 [3] is reported as > 1000 nM. For the same compound, the IC50 [4] was > 1000 nM.
For `CNc1ccc2ccc(OCc3cc(-n4cc(Cl)c5c(N)ncnc54)ccc3F)cc2n1` [Compound I-80], the IC50 [1] was 10 to 100 nM, the IC50 [2] was > 1000 nM and the IC50 [3] was > 1000 nM. For the same compound, the IC50 [4] was > 1000 nM.
`CNc1ccc2ccc(CNc3cccc(-n4cc(Br)c5c(N)ncnc54)c3)cc2n1` [Compound I-72, 7-{[(3-{4-amino-5-bromo-7H-pyrrolo[2,3-d]pyrimidin-7-yl}phenyl)amino]methyl}-N-methylquinolin-2-amine] was tested, and the IC50 [1] was 100 to 1000 nM, the IC50 [2] was > 1000 nM and the IC50 [3] was > 1000 nM. For the same compound, the IC50 [4] was > 1000 nM.
For `CNc1ccc2ccc(OCc3cccc(-n4cc(Cl)c5c(N)ncnc54)n3)cc2n1` [Compound I-84], the IC50 [1] was 10 to 100 nM, the IC50 [2] was > 1000 nM and the IC50 [3] was > 1000 nM. For the same compound, the IC50 [4] was > 1000 nM.
In the case of `Nc1ccc2ccc(OCc3cccc(-n4cc(Cl)c5c(N)ncnc54)c3)cc2n1` [Compound I-77], the IC50 [1] is reported as > 1000 nM, the IC50 [2] is reported as > 1000 nM and the IC50 [3] is reported as > 1000 nM. For the same compound, the IC50 [4] was > 1000 nM.
In the case of `C=CC(=O)Nc1nc(N)c2ccn(-c3cncc(COc4ccc5ccc(NC)nc5c4)c3)c2n1` [Compound I-31], the IC50 [1] is reported as > 1000 nM, the IC50 [2] is reported as > 1000 nM and the IC50 [4] is reported as > 1000 nM.
For `CNc1ccc2ccc(OCc3cncc(-n4ccc5c(N)nc(NC)nc54)c3)cc2n1` [Compound I-50], the IC50 [1] was > 1000 nM, the IC50 [2] was > 1000 nM and the IC50 [4] was > 1000 nM.
For `CNc1ccc2ccc(OCc3cccc(-n4ccc5c(N)ncnc54)c3)cc2n1` [Compound I-78], the IC50 [1] was 10 to 100 nM, the IC50 [2] was > 1000 nM and the IC50 [3] was > 1000 nM. The IC50 [4] was > 1000 nM.
In the case of `CNc1ccc2ccc(OCc3cc(-n4cc(Cl)c5c(N)ncnc54)cnc3N)cc2n1` [Compound I-28], the IC50 [1] is reported as 10 to 100 nM, the IC50 [2] is reported as > 1000 nM and the IC50 [3] is reported as > 1000 nM. For the same compound, the IC50 [4] was > 1000 nM.
For `CNc1ccc2ccc(OCc3cncc(-n4cc(CCN(C)C)c5c(N)ncnc54)c3)cc2n1` [Compound I-27], the IC50 [1] was 10 to 100 nM, the IC50 [2] was > 1000 nM and the IC50 [4] was > 1000 nM.
`Cc1cc(N)c2ccc(OCc3cccc(-n4ccc5c(N)ncnc54)c3)cc2n1` [Compound I-66] was tested, and the IC50 [1] was 100 to 1000 nM, the IC50 [2] was > 1000 nM and the IC50 [3] was > 1000 nM. For the same compound, the IC50 [4] was > 1000 nM.
For `CNc1ccc2ccc(OCc3cc(-n4cc(Cl)c5c(N)ncnc54)ncn3)cc2n1` [Compound I-64], the IC50 [1] was > 1000 nM, the IC50 [2] was > 1000 nM and the IC50 [3] was > 1000 nM. The IC50 [4] was > 1000 nM.
For `CNc1ccc2ccc(OCc3cncc(-n4ccc5c(C)ncnc54)c3)cc2n1` [Compound I-44], the IC50 [1] was 10 to 100 nM, the IC50 [2] was > 1000 nM and the IC50 [4] was > 1000 nM.
In the case of `CNc1ccc2ccc(OCc3cccc(-n4cc(Br)c5c(N)ncnc54)c3)cc2n1` [Compound I-43], the IC50 [1] is reported as 10 to 100 nM, the IC50 [2] is reported as > 1000 nM and the IC50 [4] is reported as > 1000 nM.
